Data on 17 compounds can be found in patent US12673951B2, “Substituted pyrazoloquinazolinone compounds and application thereof” (IMPACT THERAPEUTICS (SHANGHAI), INC, priority 2019, dated 2026).

One test addresses T1, ATM enzyme (Homo sapiens, UniProt Q13315).
T1 construct: purchased Eurofins 14-933
The test is described as follows: ATM kinase assay (HTRF). In kind it is biochemical. The conditions noted are these: for inhibition at 1 µM / inhibition at 10 µM / inhibition at 100 µM / inhibition at 0.1 µM: 0.5 h, read-out: Inh (%) ATM kinase inhibition rate; for inhibition at 0.1 µM: C 0.1 μm. How it is done: The mixture was centrifuged at 1000 rpm for 1 minute, and reacted at room temperature away from light for 30 minutes. Then 5 μL of EDTA stop solution (250 mM) was added to stop the reaction. After 5 μL of detection mixture (Anti-phospho-p53 (ser15)-K (Cisbio, #61P08KAE, 0.084 ng/μL) and Anti-GST-d2 (Cisbio, #61GSTDLA, 5.00 ng/μL)) was finally added to each well, then incubate the plate overnight at room temperature.
Relative fluorescence ratio was calculated: Ratio665 nm/615 nm-Ratiobackground, and inhibition rate %=(1−(relative fluorescence ratio of test compound well−relative fluorescence ratio of positive control well)/(relative fluorescence ratio of negative control well−relative fluorescence ratio of positive control well))×100 was calculated. Data were analyzed using GraphPad Prism6.0, and fitted using the curve equation: Y=Bottom+(Top−Bottom)/(1+10^((Log IC50−X)×HillSlope)) and IC50 values were calculated.

Test [1] concerns human breast cancer cell MDA-MB-468. The test is described as follows: MTT assay, growth of MDA-MB-468 cells. In kind it is cell-based. The settings on record: read-out: IC50, growth of MDA-MB-468. How it is done: The cells were seeded into 96-well cell culture plate with appropriate cell density and incubated overnight in a 37° C. 5% CO2 incubator. […] 5 μL of each concentration was added to 120 μL of medium (25 times diluted) and mixed by shaking. The overnight cells were taken and the culture medium was removed, 195 μL of fresh medium was added to each well, and 5 μL of diluted medium containing the corresponding concentration of the tested sample was added, respectively, and the culture plate was then placed in the 5% CO2 cell culture incubator at 37° C. for 7 days (On the fourth day, the medium containing drugs was removed and fresh medium containing drugs was added for continuous cultivation.). After removing the original solution, 100 μL of fresh serum-free DMEM medium containing MTT (0.5 mg/mL) was added to each well, the culture was continued. […] GraphPad Prism 6.0 was used to analyze the data. The inhibitory activity of compounds on cell proliferation was plotted based on cell viability and compound concentration.
(In general: Tetrazolium dyes change colour on reduction, which living cells bring about.)

The test system of test [2] is human colon cancer cell SW620. Put plainly: MTT assay, growth of SW620 cells, compounds combined with CPT-11. The conditions noted are these: read-out: IC50, growth of SW620 combined with CPT-11. The format is cell-based. How it is done:
The cells were seeded into 96-well cell culture plate with appropriate cell density and incubated overnight in a 37° C. 5% CO2 incubator. […] 5 μL of each concentration was added to 120 μL of medium (25 times diluted) and mixed by shaking. […] After removing the original solution, 100 μL of fresh serum-free DMEM medium containing MTT (0.5 mg/mL) was added to each well, the culture was continued. […] GraphPad Prism 6.0 was used to analyze the data. The inhibitory activity of compounds on cell proliferation was plotted based on cell viability and compound concentration.

[3] abbreviates: Homo sapiens, 168 h, MDA-MB-468 cells, 7 days, MTT.
The mark [4] stands for this setting: Homo sapiens, SW-620, 120 h, SW620 cells, medium containing 205 nM CPT-11, 5 days, MTT.
[5] abbreviates: Homo sapiens, MDA-MB-468, 168 h.

Where two headings read alike, the source gives them in different places. Some results are limits rather than exact numbers.

T1 sequence (Q13315 whole entry): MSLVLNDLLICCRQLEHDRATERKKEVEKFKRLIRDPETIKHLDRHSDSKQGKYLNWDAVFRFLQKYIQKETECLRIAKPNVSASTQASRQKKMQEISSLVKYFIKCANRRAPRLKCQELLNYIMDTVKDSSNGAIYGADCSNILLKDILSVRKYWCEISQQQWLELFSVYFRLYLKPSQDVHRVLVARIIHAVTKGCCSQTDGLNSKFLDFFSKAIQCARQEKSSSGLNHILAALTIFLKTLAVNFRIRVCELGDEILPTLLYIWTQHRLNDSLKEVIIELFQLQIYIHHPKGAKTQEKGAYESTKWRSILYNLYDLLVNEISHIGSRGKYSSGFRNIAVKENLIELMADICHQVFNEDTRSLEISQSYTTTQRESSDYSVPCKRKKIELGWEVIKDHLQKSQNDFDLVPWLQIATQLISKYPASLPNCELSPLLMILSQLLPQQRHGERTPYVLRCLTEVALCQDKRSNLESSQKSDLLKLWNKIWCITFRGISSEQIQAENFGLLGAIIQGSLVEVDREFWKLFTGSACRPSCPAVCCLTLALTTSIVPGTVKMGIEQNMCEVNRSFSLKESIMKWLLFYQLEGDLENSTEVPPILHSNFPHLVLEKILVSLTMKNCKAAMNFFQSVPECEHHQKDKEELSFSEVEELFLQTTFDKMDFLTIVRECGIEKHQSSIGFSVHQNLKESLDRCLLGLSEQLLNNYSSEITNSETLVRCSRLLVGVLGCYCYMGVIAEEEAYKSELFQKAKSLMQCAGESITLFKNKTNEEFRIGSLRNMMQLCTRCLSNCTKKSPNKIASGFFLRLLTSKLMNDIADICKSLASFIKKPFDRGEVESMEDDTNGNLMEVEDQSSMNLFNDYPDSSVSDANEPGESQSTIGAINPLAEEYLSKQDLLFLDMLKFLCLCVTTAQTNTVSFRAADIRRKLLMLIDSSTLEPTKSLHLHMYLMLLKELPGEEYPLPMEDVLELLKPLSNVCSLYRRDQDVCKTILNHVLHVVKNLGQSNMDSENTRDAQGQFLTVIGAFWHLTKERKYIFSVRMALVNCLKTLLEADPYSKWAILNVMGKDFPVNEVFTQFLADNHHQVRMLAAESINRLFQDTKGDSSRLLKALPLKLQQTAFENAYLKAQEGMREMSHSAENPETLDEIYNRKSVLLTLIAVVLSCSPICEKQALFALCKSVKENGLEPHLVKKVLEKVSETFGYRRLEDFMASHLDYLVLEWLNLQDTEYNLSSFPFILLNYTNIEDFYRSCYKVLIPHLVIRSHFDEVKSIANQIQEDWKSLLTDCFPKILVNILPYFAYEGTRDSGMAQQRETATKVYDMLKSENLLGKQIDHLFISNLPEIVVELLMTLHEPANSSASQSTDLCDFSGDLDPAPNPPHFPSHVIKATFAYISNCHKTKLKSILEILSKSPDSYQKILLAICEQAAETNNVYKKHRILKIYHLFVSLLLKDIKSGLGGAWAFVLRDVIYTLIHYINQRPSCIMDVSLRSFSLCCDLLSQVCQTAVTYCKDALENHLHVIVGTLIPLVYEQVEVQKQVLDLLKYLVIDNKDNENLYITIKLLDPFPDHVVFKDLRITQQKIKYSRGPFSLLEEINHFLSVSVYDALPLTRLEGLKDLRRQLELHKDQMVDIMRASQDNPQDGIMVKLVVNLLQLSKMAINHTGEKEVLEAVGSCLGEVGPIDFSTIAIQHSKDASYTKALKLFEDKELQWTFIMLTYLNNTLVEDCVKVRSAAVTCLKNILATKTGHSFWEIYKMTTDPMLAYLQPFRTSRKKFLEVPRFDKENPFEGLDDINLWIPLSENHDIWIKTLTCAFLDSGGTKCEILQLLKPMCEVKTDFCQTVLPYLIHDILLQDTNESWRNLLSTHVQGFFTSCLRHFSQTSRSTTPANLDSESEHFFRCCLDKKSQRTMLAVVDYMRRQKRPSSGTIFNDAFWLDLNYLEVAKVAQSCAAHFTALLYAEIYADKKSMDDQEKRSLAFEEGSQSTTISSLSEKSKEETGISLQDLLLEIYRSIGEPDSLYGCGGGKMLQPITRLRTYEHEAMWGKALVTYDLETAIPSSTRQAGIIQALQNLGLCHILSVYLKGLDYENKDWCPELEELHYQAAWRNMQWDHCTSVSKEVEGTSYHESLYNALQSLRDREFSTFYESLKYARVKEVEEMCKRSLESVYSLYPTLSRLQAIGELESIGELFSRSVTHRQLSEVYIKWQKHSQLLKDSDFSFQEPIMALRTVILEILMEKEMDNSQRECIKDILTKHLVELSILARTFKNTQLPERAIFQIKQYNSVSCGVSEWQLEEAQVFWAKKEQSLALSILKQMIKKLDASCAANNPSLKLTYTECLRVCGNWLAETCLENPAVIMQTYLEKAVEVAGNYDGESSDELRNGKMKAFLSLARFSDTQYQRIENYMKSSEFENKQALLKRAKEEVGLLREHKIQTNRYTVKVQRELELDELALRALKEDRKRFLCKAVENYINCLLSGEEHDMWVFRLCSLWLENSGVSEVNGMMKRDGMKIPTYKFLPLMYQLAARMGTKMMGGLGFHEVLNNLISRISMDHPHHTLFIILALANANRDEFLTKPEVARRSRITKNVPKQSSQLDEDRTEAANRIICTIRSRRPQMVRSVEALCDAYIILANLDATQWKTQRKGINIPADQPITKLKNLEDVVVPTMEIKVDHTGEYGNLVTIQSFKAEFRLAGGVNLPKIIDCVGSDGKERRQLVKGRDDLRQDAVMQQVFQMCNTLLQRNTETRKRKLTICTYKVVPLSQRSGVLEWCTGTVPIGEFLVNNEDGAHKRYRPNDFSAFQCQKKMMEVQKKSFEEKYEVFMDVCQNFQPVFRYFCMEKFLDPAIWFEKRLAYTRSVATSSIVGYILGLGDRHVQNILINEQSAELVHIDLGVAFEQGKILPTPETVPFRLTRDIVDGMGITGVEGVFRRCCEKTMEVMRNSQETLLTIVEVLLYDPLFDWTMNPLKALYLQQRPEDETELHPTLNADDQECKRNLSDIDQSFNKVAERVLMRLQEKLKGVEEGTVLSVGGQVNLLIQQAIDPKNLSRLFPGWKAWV

As for `CN(C)CCCOc1ccc(-c2ccc3ncc4c(c3c2)n(C2CCOCC2)c(=O)n4C)cn1` [AZD0156, reference compound], the “Inh (%) ATM kinase inhibition rate” value on ATM enzyme (C 1 μm) stood at 90%; at ATM enzyme (C 10 μm) it was 95%; on ATM enzyme (C 100 μm) it was 100%. For the same compound, the IC50 (usually the point on the concentration scale where inhibition reaches its midpoint) in test [1] (MDA-MB-468 cells, 7 days, MTT) was 9.87 nM; in test [2] (SW620 cells, medium containing 205 nM CPT-11, 5 days, MTT) it was 9.77 nM.
As for `CN(C)CCCOc1ccc(-c2ccc3ncn4[nH]c(=O)c(C5CCOCC5)c4c3c2)cn1` [Example 1, 9-(6-(3-(dimethylamino)propoxy)pyridin-3-yl)-1-(tetrahydro-2H-pyran-4-yl)pyrazolo[1,5-c]quinazolin-2(3H)-one], the inhibition – broadly, how much of the control response was suppressed – at 1 µM at ATM enzyme (C 1 μm) was 0%. The inhibition at 10 µM at ATM enzyme (C 10 μm) stood at 23%. Moreover, the inhibition at 100 µM on ATM enzyme (C 100 μm) was found to be 69%. Moreover, the IC50 in test [1] (setting [3]) was 231 nM; in test [2] (setting [4]) it was more than 1000 nM.
`CN(C)CCCOc1ccc(-c2ccc3ncn4c(c(C5CCOCC5)c(=O)n4C)c3c2)cn1` [Example 2, 9-(6-(3-(dimethylamino)propoxy)pyridin-3-yl)-3-methyl-1-(tetrahydro-2H-pyran-4-yl)pyrazolo[1,5-c]quinazolin-2(3H)-one]: the inhibition at 1 µM on ATM enzyme (C 1 μm) turned out to be 87%. Further, the inhibition at 10 µM at ATM enzyme (C 10 μm) was 96%. The inhibition at 100 µM at ATM enzyme (C 100 μm) amounted to 100%. For the same compound, the IC50 is 9.5 nM in test [1] (setting [3]) and 9.8 nM in test [2] (setting [4]).
Take `Cn1c(=O)c(C2CCOCC2)c2c3cc(-c4ccc(OCCCN5CCCCC5)nc4)ccc3ncn21` [Example 3, 9-(6-(3-(piperidin-1-yl)propoxy)pyridin-3-yl)-3-methyl-1-(tetrahydro-2H-pyran-4-yl)pyrazolo[1,5-c]quinazolin-2(3H)-one]: on ATM enzyme, the inhibition at 0.1 µM was 66%. Also, the inhibition at 1 µM on ATM enzyme (C 1 μm) amounted to 93%. The inhibition at 10 µM on ATM enzyme (C 10 μm) turned out to be 98%. Also, the IC50 in test [1] (setting [3]) worked out at 6 nM; in test [2] (setting [4]), 6.22 nM.
For `CN(C)CCCOc1ccc(-c2ccc3ncn4c(c(C5CCOCC5)c(=O)n4C)c3c2)cc1C(F)(F)F` [Example 5, 9-(4-(3-(dimethylamino)propoxy)-3-(trifluoromethyl)phenyl)-3-methyl-1-(tetrahydro-2H-pyran-4-yl)pyrazolo[1,5-c]quinazolin-2(3H)-one] the same measures were 61%, 93%, 100%, 2.38 nM and 1.52 nM.
For `CN(C)C1CCN(c2ccc(-c3ccc4ncn5c(c(C6CCOCC6)c(=O)n5C)c4c3)cc2F)CC1` [Example 6, 9-(4-(4-(dimethylamino)piperidin-1-yl)-3-fluorophenyl)-3-methyl-1-(tetrahydro-2H-pyran-4-yl)pyrazolo[1,5-c]quinazolin-2(3H)-one] the same measures were 57%, 94%, 98%, 2.71 nM and 2.69 nM.
Taken in the same sequence, the figures for `CN(C)C1CCN(c2ccc(-c3ccc4ncn5c(c(C6CCOCC6)c(=O)n5C)c4c3)cc2Cl)CC1` [Example 7, 9-(3-chloro-4-(4-(dimethylamino)piperidin-1-yl)phenyl)-3-methyl-1-(tetrahydro-2H-pyran-4-yl)pyrazolo[1,5-c]quinazolin-2(3H)-one] were 61%, 91%, 96%, 3.79 nM and 3.16 nM.
As for `CN(C)C1CCN(c2ccc(-c3ccc4ncn5c(c(C6CCOCC6)c(=O)n5C)c4c3)cc2C(F)(F)F)CC1` [Example 8, 9-(4-(4-(dimethylamino)piperidin-1-yl)-3-(trifluoromethyl)phenyl)-3-methyl-1-(tetrahydro-2H-pyran-4-yl)pyrazolo[1,5-c]quinazolin-2(3H)-one], the inhibition at 0.1 µM on ATM enzyme came out at 86%. Also, at ATM enzyme (C 1 μm), the inhibition at 1 µM came out at 99%. Also, on ATM enzyme (C 10 μm), the inhibition at 10 µM was 100%. Further, the IC50 in test [1] (setting [3]) came out at 2.65 nM; in test [2] (setting [4]), 2.1 nM.
Turning to `CNC1CCN(c2ccc(-c3ccc4ncn5c(c(C6CCOCC6)c(=O)n5C)c4c3)cc2C(F)(F)F)CC1` [Example 10, 9-(4-(4-(methylamino)piperidin-1-yl)-3-(trifluoromethyl)phenyl)-3-methyl-1-(tetrahydro-2H-pyran-4-yl)pyrazolo[1,5-c]quinazolin-2(3H)-one], at ATM enzyme, the inhibition at 0.1 µM was determined as 87%. Besides, the inhibition at 1 µM at ATM enzyme (C 1 μm) is 95%. For the same compound, the inhibition at 10 µM on ATM enzyme (C 10 μm) was determined as 100%. For the same compound, the IC50 in test [1] (setting [3]) worked out at 2.27 nM; in test [2] (setting [4]), 1.46 nM.
For `CCNC1CCN(c2ccc(-c3ccc4ncn5c(c(C6CCOCC6)c(=O)n5C)c4c3)cc2C(F)(F)F)CC1` [Example 11, 9-(4-(4-(ethylamino)piperidin-1-yl)-3-(trifluoromethyl)phenyl)-3-methyl-1-(tetrahydro-2H-pyran-4-yl)pyrazolo[1,5-c]quinazolin-2(3H)-one] the same measures were 66%, 95%, 100%, 3.55 nM and 4.82 nM.
As to `CC(C)c1c(=O)n(C)n2cnc3ccc(-c4ccc(OCCCN(C)C)nc4)cc3c12` [Example 19, 9-(6-(3-(dimethylamino)propoxy)pyridin-3-yl)-1-isopropyl-3-methylpyrazolo[1,5-c]quinazolin-2(3H)-one], the IC50 amounted to 5.55 nM in test [1] (setting [5]) and 5.67 nM in test [2] (Homo sapiens, SW-620, 120 h).
`CC(C)c1c(=O)n(C)n2cnc3ccc(-c4ccc(OCCCN5CCCCC5)nc4)cc3c12` [Example 20, 9-(6-(3-(piperidin-1-yl)propoxy)pyridin-3-yl)-1-isopropyl-3-methyl-pyrazolo[1,5-c]quinazolin-2(3H)-one]: the IC50 in test [1] (setting [5]) is 2.21 nM; in test [2] (Homo sapiens, SW-620, 120 h), 3.48 nM.
On to `CC(C)c1c(=O)n(C)n2cnc3ccc(-c4ccc(N5CCC(N(C)C)CC5)c(F)c4)cc3c12` [Example 21, 9-(4-(4-(dimethylamino)piperidin-1-yl)-3-fluorophenyl)-1-isopropyl-3-methylpyrazolo[1,5-c]quinazolin-2(3H)-one], for which the IC50 was determined as 7.22 nM in test [1] (setting [5]) and 10.5 nM in test [2] (Homo sapiens, SW-620, 120 h).
Take `CC(C)c1c(=O)n(C)n2cnc3ccc(-c4ccc(N5CCC(N(C)C)CC5)c(Cl)c4)cc3c12` [Example 22, 9-(3-chloro-4-(4-(dimethylamino)piperidin-1-yl)phenyl)-1-isopropyl-3-methylpyrazolo[1,5-c]quinazolin-2(3H)-one]: the IC50 in test [1] (setting [5]) came out at 22.9 nM; in test [2] (Homo sapiens, SW-620, 120 h), 26.1 nM.
For the compound `CC(C)c1c(=O)n(C)n2cnc3ccc(-c4ccc(N5CCC(N(C)C)CC5)c(C(F)(F)F)c4)cc3c12` [Example 23, 9-(4-(4-(dimethylamino)piperidin-1-yl)-3-(trifluoromethyl)phenyl)-1-isopropyl-3-methylpyrazolo[1,5-c]quinazolin-2(3H)-one], the IC50 in test [1] (setting [5]) is 6.76 nM; in test [2] (Homo sapiens, SW-620, 120 h), 8.49 nM.
Taken in the same sequence, the figures for `CC(C)c1c(=O)n(C)n2cnc3ccc(-c4ccc(OCCCN(C)C)c(F)c4)cc3c12` [Example 24, 9-(4-(3-(dimethylamino)propoxy)-3-fluorophenyl)-1-isopropyl-3-methylpyrazolo[1,5-c]quinazolin-2(3H)-one] were 43.8 nM and 47.6 nM.
`CC(C)c1c(=O)n(C)n2cnc3ccc(-c4ccc(OCCCN(C)C)c(C(F)(F)F)c4)cc3c12` [Example 25, 9-(4-(3-(dimethylamino)propoxy)-3-(trifluoromethyl)phenyl)-1-isopropyl-3-methylpyrazolo[1,5-c]quinazolin-2(3H)-one]: the IC50 in test [1] (setting [5]) came out at 13.5 nM; in test [2] (Homo sapiens, SW-620, 120 h), 13.4 nM.
